This assay concerns the target T1, FAAH (Rattus norvegicus, UniProt P97612).
T1 construct: Preparation of Rat Brain Membranes Preparations (FAAH Enzyme Solution); from tissue; host or cells: rat cerebrum (brain membrane preparation)
T1 sequence (P97612 1-579): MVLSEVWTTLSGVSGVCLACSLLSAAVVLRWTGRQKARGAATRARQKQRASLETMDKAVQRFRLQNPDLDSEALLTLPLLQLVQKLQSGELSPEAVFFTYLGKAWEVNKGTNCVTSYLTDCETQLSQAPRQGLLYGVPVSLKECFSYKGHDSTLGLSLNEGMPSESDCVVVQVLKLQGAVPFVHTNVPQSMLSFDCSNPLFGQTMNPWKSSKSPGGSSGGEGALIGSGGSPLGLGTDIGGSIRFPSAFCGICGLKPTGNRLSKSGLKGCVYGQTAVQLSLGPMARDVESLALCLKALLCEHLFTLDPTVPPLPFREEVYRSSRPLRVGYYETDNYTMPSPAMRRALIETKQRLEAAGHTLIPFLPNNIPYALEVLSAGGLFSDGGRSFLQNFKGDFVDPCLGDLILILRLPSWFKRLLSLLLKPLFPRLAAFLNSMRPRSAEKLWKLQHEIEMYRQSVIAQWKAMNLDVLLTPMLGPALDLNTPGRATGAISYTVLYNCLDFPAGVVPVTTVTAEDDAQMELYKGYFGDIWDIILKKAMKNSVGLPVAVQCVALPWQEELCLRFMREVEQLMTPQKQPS
Kind of assay: Determination of FAAH inhibitory activity in rat (rat brain membrane preparations, [3H]-anandamide hydrolysis). The following applies: rat brain membrane preparations; for IC50: read-out: FAAH Inhibition IC50. In kind it is biochemical. The method, boiled down: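 Rat cerebrum membranes (100 μg/mL protein) preincubated 10 min at 37 °C with compound (1% DMSO) in pH 7.6 Tris buffer with 1.5% BSA. Substrate 2 nM [3H]-anandamide plus 2 μM anandamide added for 10 min at 37 °C. [3H]-ethanolamine in the aqueous phase after chloroform/methanol extraction was scintillation counted; IC50 over 0.1 nM–1 μM.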

The mark [1] stands for this setting: 100 nM test substance, read-out: FAAH Inhibition, Inhibition Rate at 100 nM.
The mark [2] stands for this setting: at 100 nM, read-out: FAAH Inhibition Inhibition Rate at 100 nM.

Where two headings read alike, the source gives them in different places.

`Cn1c(=O)n(C(=O)N2CCC2)c2nc(CCc3ccc(C4CC4)cc3)ncc21` [compound 573]: under setting [1], the inhibition (commonly the drop in the measured response relative to a control, in per cent) at 0.1 µM was found to be 99%. Besides, the IC50 – broadly, the point on the concentration scale where inhibition reaches its midpoint – (test substance 0.1 nM to 1 μM) came out at 16 nM.

As for `Cn1c(=O)n(C(=O)N2CCC2)c2nc(CCc3ccc(Cl)cc3)ncc21` [compound 575], the inhibition at 0.1 µM under setting [1] was determined as 102%. For the same compound, the IC50 (test substance 0.1 nM to 1 μM) was 10 nM.

For `Cc1ccccc1CCc1ncc2c(n1)n(C(=O)N1CCC1)c(=O)n2C` [compound 591], the inhibition at 0.1 µM under setting [1] amounted to 57%. The IC50 (test substance 0.1 nM to 1 μM) was found to be 75 nM.

Regarding `Cn1c(=O)n(C(=O)N2CCC2)c2nc(CCc3cccc(C(F)F)c3)ncc21` [compound 594], the inhibition at 0.1 µM under setting [1] turned out to be 84%. The IC50 (test substance 0.1 nM to 1 μM) turned out to be 21 nM.

For `Cn1c(=O)n(C(=O)N2CCC2)c2nc(CCc3ccc(C(F)(F)F)cc3)ncc21` [compound 597], the inhibition at 0.1 µM under setting [1] was determined as 92%. The IC50 (test substance 0.1 nM to 1 μM) is 10 nM.

With `CCOc1cccc(CCc2ncc3c(n2)n(C(=O)N2CCC2)c(=O)n3C)c1` [compound 604], the IC50 worked out at 15 nM. Under setting [2], the inhibition at 0.1 µM stood at 92%.

For `Cn1c(=O)n(C(=O)N2CCC2)c2nc(CCc3ccc(OC(F)(F)F)cc3)ncc21` [compound 609], the IC50 came to 4 nM. Besides, the inhibition at 0.1 µM under setting [2] stood at 108%.

On to `Cn1c(=O)n(C(=O)N2CC(c3ccc(F)cc3)C2)c2cnc(C3CC3)nc21` [compound 621], for which the IC50 is 10 nM. Also, the inhibition at 0.1 µM under setting [2] stood at 78%.

Turning to `Cn1c(=O)n(C(=O)N2CC(c3cccc(F)c3)C2)c2cnc(C3CC3)nc21` [compound 622], the IC50 turned out to be 1 nM. The inhibition at 0.1 µM under setting [2] came to 116%.

For the compound `Cn1c(=O)n(C(=O)N2CC(c3ccccc3)C2)c2cnc(C3CC3)nc21` [compound 623], the IC50 came out at 3 nM. In addition, under setting [2], the inhibition at 0.1 µM is 87%.

For `CCCc1ncc2c(n1)n(C)c(=O)n2C(=O)N1CC(c2ccc(F)cc2)C1` [compound 624], the IC50 is 18 nM. Further, under setting [2], the inhibition at 0.1 µM was 97%.

For `CCCc1ncc2c(n1)n(C)c(=O)n2C(=O)N1CC(c2cccc(F)c2)C1` [compound 625], the IC50 was 7 nM. The inhibition at 0.1 µM under setting [2] was 104%.

For `CCCc1ncc2c(n1)n(C)c(=O)n2C(=O)N1CC(c2ccccc2)C1` [compound 626], the IC50 turned out to be 4 nM. Also, the inhibition at 0.1 µM under setting [2] was determined as 128%.

Turning to `CCc1ncc2c(n1)n(C)c(=O)n2C(=O)N1CC(c2ccccc2)C1` [compound 627], the IC50 is 4 nM. Further, the inhibition at 0.1 µM under setting [2] is 107%.

Turning to `CCc1ncc2c(n1)n(C)c(=O)n2C(=O)N1CC(c2ccc(F)cc2)C1` [compound 628], the IC50 was found to be 10 nM. For the same compound, the inhibition at 0.1 µM under setting [2] worked out at 90%.

For `CN(C)C(=O)n1c(=O)n(C)c2cnc(CCOc3cccc(F)c3)nc21` [compound 639], the IC50 was 27 nM. Moreover, the inhibition at 0.1 µM under setting [2] was found to be 76%.

As for `CN(C)C(=O)n1c(=O)n(C)c2cnc(CCOc3ccc(Cl)cc3)nc21` [compound 640], the IC50 turned out to be 12 nM. Besides, the inhibition at 0.1 µM under setting [2] came out at 95%.

In the case of `CN(C)C(=O)n1c(=O)n(C)c2cnc(CCOc3cccc(C(F)(F)F)c3)nc21` [compound 642], the IC50 turned out to be 9 nM. Also, the inhibition at 0.1 µM under setting [2] turned out to be 89%.

Turning to `CN(C)C(=O)n1c(=O)n(C)c2cnc(Cc3ccccc3Cl)nc21` [compound 652], the IC50 amounted to 31 nM. Also, the inhibition at 0.1 µM under setting [2] worked out at 60%.

In the case of `CN(C)C(=O)n1c(=O)n(C)c2cnc(Cc3ccc(Cl)cc3)nc21` [compound 653], the IC50 came to 11 nM. Under setting [2], the inhibition at 0.1 µM came to 108%.

Consider `COCc1ncc2c(n1)n(C1CC1)c(=O)n2C(=O)N1CC(c2ccccc2)C1` [compound 663], for which the IC50 was 24 nM. The inhibition at 0.1 µM under setting [2] worked out at 88%.

Take `COCc1ncc2c(n1)n(C1CC1)c(=O)n2C(=O)N1CC(c2ccc(F)cc2)C1` [compound 664]: the IC50 stood at 10 nM. Under setting [2], the inhibition at 0.1 µM amounted to 102%.

As to `COCc1ncc2c(n1)n(C1CC1)c(=O)n2C(=O)N1CC(c2cccc(F)c2)C1` [compound 665], the IC50 was determined as 7 nM. Also, the inhibition at 0.1 µM under setting [2] worked out at 99%.

These data come from patent publication US8735406B2, “8-oxodihydropurine derivative” (Dainippon Sumitomo Pharma Co., Ltd., priority 2009, dated 2014).
